Data taken from patent US20100016275A1, “NOVEL COMPOUND 395” (priority 2008, published 2010).
Values joined by “and” are separate entries in the source; they are usually repeats but may differ in a detail not shown here. Equal entries are not always repeated.

Molecular target: T1, human CXCR2 receptor (Homo sapiens, UniProt P25025)
T1 construct: expressed in transfected cells; host or cells: HEK293, stably transfected geneticin-resistant clones, vector RcCMV; membranes purified by sucrose gradient
T1 sequence (P25025 1-360): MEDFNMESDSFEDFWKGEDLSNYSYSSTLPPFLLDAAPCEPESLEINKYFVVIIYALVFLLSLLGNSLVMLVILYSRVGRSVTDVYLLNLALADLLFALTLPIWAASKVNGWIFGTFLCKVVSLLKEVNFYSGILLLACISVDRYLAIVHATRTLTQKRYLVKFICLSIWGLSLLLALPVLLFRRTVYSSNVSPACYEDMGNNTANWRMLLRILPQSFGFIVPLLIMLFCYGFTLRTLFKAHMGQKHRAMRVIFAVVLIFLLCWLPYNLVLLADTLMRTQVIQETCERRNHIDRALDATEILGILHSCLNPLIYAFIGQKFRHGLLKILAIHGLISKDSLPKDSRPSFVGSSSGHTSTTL
Test: Potency (pIC50) ligand binding assay, inhibition of [125I]IL-8 binding
Details: for IC50: inhibition of specific [125I]IL-8 (0.06 nM) binding, membranes of HEK293 cells transfected with human recombinant CXCR2
Experimental: Potency (pIC50)—Ligand Binding Assay
The potency of antagonists at the human CXCR2 receptor was determined in vitro by quantifying their ability to inhibit specific binding of the CXCR2 radioligand, [^125I]interleukin-8 (IL-8), from membranes of HEK293 cells transfected with the human recombinant CXCR2 receptor.
Commercially sourced materials were obtained as follows: U-bottomed 96-well plates (3799) and 225 cm^2 vented cap culture flasks (3001) from Costar, Corning, Kent, UK. Multiscreen filter plates (0.45 μm; MAHV N45 50), vacuum manifold and pump (XF54 230 50) from Millipore, Watford, UK. N-[2-hydroxyethyl]piperazine-N′-[2ethanesulphonic acid] (HEPES; H-3375), ethylene diamine-tetraacetic acid (EDTA; E1644), magnesium chloride (M-9272), gelatin (G9382), dithiothreitol (DTT; D06052), sodium chloride (S3160/63), sodium hydroxide (B6506), bacitracin (B0125), inactivated foetal calf serum (FCS; CR0848) and DMSO Fluka Chemika (41648) from Sigma, Poole, UK. MicroScint-O (6013611) Packard BioScience, Pangboume, UK. Complete protease inhibitor cocktail tablets (1836145) from Boehringer s Mannheim, GmbH, Germany. Human recombinant [^125I]IL-8 74 TBq/mmol, 0.712 MBq/ml (IM249) from Amersham, Horsham UK. All other tissue culture reagents were purchased from Invitrogen, Paisley, Scotland, UK. All other chemical reagents were analytical grade from Fisher Scientific, Loughborough, UK
HEPES-buffered salt solution pH 7.4 containing HEPES (10 mM), potassium chloride (2.7 mM), sodium chloride (137 mM), potassium hydrogen phosphate (0.4 mM), calcium chloride (1.8 mM), magnesium chloride (1 mM), gelatin (0.1% (w/v)) and bacitracin (100 μg/ml).
HEPES-buffered Tyrode's solution pH 7.4 containing HEPES (10 mM), potassium chloride (2.7 mM), sodium chloride (137 mM), potassium hydrogen phosphate (0.4 mM), glucose (11 mM).
Hypotonic buffer: 3:1 mix of water: HEPES-buffered Tyrode's solution.
HEK293 cells were transfected with human CXCR2 (EMBL L19593) cDNA, previously cloned into the eukaryotic expression vector RcCMV. Cloned cell-lines were generated from stably-transfected geneticin-resistant populations. Cells were routinely grown to approximately 80% confluence in DMEM medium containing 10% (v/v) foetal calf serum and glutamine (2 mM) in a humidified incubator at 37° C., 5% CO2. Cells were harvested from flasks using Accutase™ at 37° C. for 3 to 5 minutes and resuspended on ice in hypotonic buffer at a density of 2×10^7 cells/mL. Membranes were prepared on ice by homogenisaton using a polytron tissue homogenizer set at 22000 rpm. The membrane fraction was purified by sucrose gradient centrifugation where homogenised cells were layered onto 41% (w/v) sucrose solution then centrifuged at 140000 g for 1 hour at 4° C. The membrane fraction was harvested at the interface, diluted 4-fold with HEPES-buffered Tyrode's solution and centrifuged at 100000 g for 20 minutes at 4° C. The membrane pellet was re-suspended at 1×10^8 cell equivalents/mL in HEPES-buffered Tyrode's solution and subsequently stored in aliquots at −80° C. All buffers used for membrane preparation and storage were made in the presence of 1 mM DTT and Complete Protease Inhibitor™ cocktail tablets, made up to manufacturers instructions.
Assays were performed in HEPES-buffered salt solution in 96-well plates. [^125I]IL-8 was used at a final concentration of 0.06 nM, pre-diluted from a 9.6 nM stock. The final DMSO concentration in the assay was 1% (v/v). Test compounds were prepared by serial dilution in DMSO followed by a ten-fold dilution into HEPES-buffered salt solution to give a working solution containing compound and 10% DMSO. The control for total binding (B0) of [^125I]IL-8 was determined in the absence of compound. The control for non-specific binding (NSB) was determined by measuring [^125I]IL-8 binding in the presence of (1R)-5-[[(3 -chloro-2-fluorophenyl)methyl]thio]-7-[[2-hydroxy-1-methylethyl]amino]thiazolo[4,5-d]pyrimidin-2(3H)-one dihydrate, sodium salt at 1 μM final concentration. […]

Row | SMILES | IC50 | fold less potent than the compound of Formula (1) (potency ratio from pIC50) | fold less potent than the compounds of Examples 39-42 (potency ratio from pIC50)
1 | Cc1cccc(CSc2nc(N[C@H](C)CO)cc(NS(C)(=O)=O)n2)c1F [Example 39] | 3.98 nM | – | –
2 | Cc1cccc(CSc2nc(N[C@H](C)CO)cc(NS(=O)(=O)N3CCC3)n2)c1F [Example 40] | 2.51 nM | – | –
3 | Cc1ccc(CSc2nc(N[C@H](C)CO)cc(NS(=O)(=O)N3CCC3)n2)c(F)c1C [Example 41] | 3.16 nM | – | –

Further lines, results first:

Row | IC50 | fold less potent than the compound of Formula (1) (potency ratio from pIC50) | fold less potent than the compounds of Examples 39-42 (potency ratio from pIC50) | SMILES
4 | 6.31 nM and < 10 nM | – | – | C[C@@H](Nc1cc(NS(=O)(=O)N2CCC2)nc(SCc2cccc(F)c2F)n1)[C@@H](O)CO [Example 1, N-(2-[(2,3-difluorobenzyl)thio]-6-{[(1R,2R)-2,3-dihydroxy-1-methylpropyl]amino}pyrimidin-4-yl)azetidine-1-sulfonamide]
5 | 2510 nM | 398 fold | 316-1000 fold | CS(=O)(=O)Nc1cc(NC(CO)CO)nc(SCc2ccccc2)n1 [Example 21]
6 | 7.94 nM | – | – | Cc1ccc(CSc2nc(N[C@H](C)CO)cc(NS(=O)(=O)N3CCC3)n2)c(F)c1C [Example 42]
